# Assay results from patent publication US11866720B2, “Transgenic or non-transgenic plants with mutated protoporphyrinogen oxidase having increased tolerance to herbicides” (priority 2013, dated 2024).
# Several values for one entry are separate records, joined by “and”; a condition that tells them apart may be missing. Equal values may be shown once.
# Assays:
# [1] = test system: transgenic Arabidopsis thaliana plants expressing wildtype or mutated PPO; experiment: Greenhouse tolerance test of transgenic T1 Arabidopsis plants (phytotox / injury rating 0-100); format: in vivo; settings: for Plant growth injury, scale 0-100, 100 is 100% damage: +1% MSO
# [2] = test system: transgenic soybean expressing mutated PPO; experiment: Soybean T0 cuttings, greenhouse spray test (injury score 0-9, 1 week after treatment); format: in vivo, Glycine max; settings: for Injury score from 0-9: soybean T0 cuttings, 1 week after treatment
# Text: For testing of T0 plants, cuttings can be used. In the case of soybean plants, an optimal shoot for cutting is about 7.5 to 10 cm tall, with at least two nodes present. Each cutting is taken from the original transformant (mother plant) and dipped into rooting hormone powder (indole-3-butyric acid, IBA). The cutting is then placed in oasis wedges inside a bio-dome. Wild type cuttings are also taken simultaneously to serve as controls. The cuttings are kept in the bio-dome for 5-7 days and then transplanted to pots and then acclimated in the growth chamber for two more days. Subsequently, the cuttings are transferred to the greenhouse, acclimated for approximately 4 days, and then subjected to spray tests as indicated. Depending on the species, the plants are kept at 10-25° C. or 20-35° C. The test period extends over 3 weeks. During this time, the plants are tended and their response to the individual treatments is evaluated. Herbicide injury evaluations are taken at 2 and 3 weeks after treatment. Plant injury is rated on a scale of 0% to 100%, 0% being no injury and 100% being complete death.
# Soybean cv Jake was transformed as previously described by Siminszky et al., Phytochem Rev. 5:445-458 (2006). After regeneration, transformants were transplanted to soil in small pots, placed in growth chambers (16 hr day/8 hr night; 25° C. day/23° C. night; 65% relative humidity; 130-150 microE m-2 s-1) and subsequently tested for the presence of the T-DNA via Taqman analysis. After a few weeks, healthy, transgenic positive, single copy events were transplanted to larger pots and allowed to grow in the growth chamber. An optimal shoot for cutting was about 3-4 inches tall, with at least two nodes present. Each cutting was taken from the original transformant (mother plant) and dipped into rooting hormone powder (indole-3-butyric acid, IBA). The cutting was then placed in oasis wedges inside a bio-dome. The mother plant was taken to maturity in the greenhouse and harvested for seed. Wild type cuttings were also taken simultaneously to serve as negative controls. The cuttings were kept in the bio-dome for 5-7 days and then transplanted to 3 inch pots and then acclimated in the growth chamber for two more days. […] Herbicide injury evaluations were taken at 2, 7, 14 and 21 days after treatment. Results are shown in Tables 11a-11i, and FIGS. 5, 6, and 7.
# The following gives a definition of the injury scores measured above: […]
smiles,measurement,setting,value
C#CCN1C(=O)C(F)(F)Oc2cc(F)c(-n3c(=O)n(C)c(=S)n(C)c3=O)cc21,"Injury Rating 0-100% (0 = no injury, 100 = total control)","[1]; Line 2, F420V, SEQ_ID 2 & 4, 19 DAT, 150 g/Ha + 1% MSO",90% and 85% and 45%
same,"Plant growth injury, scale 0-100, 100 is 100% damage","[1]; non-transgenic Arabidopsis, POST, 7 DAT, 75 g ai/ha",98%
same,"Plant growth injury, scale 0-100, 100 is 100% damage","[1]; non-transgenic Arabidopsis, POST, 7 DAT, 150 g ai/ha",98%
same,"Plant growth injury, scale 0-100, 100 is 100% damage","[1]; non-transgenic Arabidopsis, POST, 7 DAT, 300 g ai/ha",98%
same,"Plant growth injury, scale 0-100, 100 is 100% damage","[1]; Ø F420V 1, POST, 7 DAT, 75 g ai/ha",17%
same,"Plant growth injury, scale 0-100, 100 is 100% damage","[1]; Ø F420V 1, POST, 7 DAT, 150 g ai/ha",28%
same,"Plant growth injury, scale 0-100, 100 is 100% damage","[1]; Ø F420V 1, POST, 7 DAT, 300 g ai/ha",36%
same,"Plant growth injury, scale 0-100, 100 is 100% damage","[1]; Ø F420V 1 to 3, 75 g ai/ha",11%
same,"Plant growth injury, scale 0-100, 100 is 100% damage","[1]; Ø F420V 1 to 3, 150 g ai/ha",17%
same,"Plant growth injury, scale 0-100, 100 is 100% damage","[1]; Ø F420V 1 to 3, 300 g ai/ha",26%
same,"Plant growth injury, scale 0-100, 100 is 100% damage","[1]; Ø F420V 2, POST, 7 DAT, 75 g ai/ha",9%
same,"Plant growth injury, scale 0-100, 100 is 100% damage","[1]; Ø F420V 2, POST, 7 DAT, 150 g ai/ha",11%
same,"Plant growth injury, scale 0-100, 100 is 100% damage","[1]; Ø F420V 2, POST, 7 DAT, 300 g ai/ha",22%
same,"Plant growth injury, scale 0-100, 100 is 100% damage","[1]; Ø F420V 3, POST, 7 DAT, 75 g ai/ha",8%
same,"Plant growth injury, scale 0-100, 100 is 100% damage","[1]; Ø F420V 3, POST, 7 DAT, 150 g ai/ha",12%
same,"Plant growth injury, scale 0-100, 100 is 100% damage","[1]; Ø F420V 3, POST, 7 DAT, 300 g ai/ha",22%
same,"Plant growth injury, scale 0-100, 100 is 100% damage","[1]; Ø R128A, F420V 1, POST, 7 DAT, 75 g ai/ha",18%
same,"Plant growth injury, scale 0-100, 100 is 100% damage","[1]; Ø R128A, F420V 1, POST, 7 DAT, 150 g ai/ha",23%
same,"Plant growth injury, scale 0-100, 100 is 100% damage","[1]; Ø R128A, F420V 1, POST, 7 DAT, 300 g ai/ha",26%
same,"Plant growth injury, scale 0-100, 100 is 100% damage","[1]; Ø R128A, F420V 1 to 3, 75 g ai/ha",18%
same,"Plant growth injury, scale 0-100, 100 is 100% damage","[1]; Ø R128A, F420V 1 to 3, 150 g ai/ha",24%
same,"Plant growth injury, scale 0-100, 100 is 100% damage","[1]; Ø R128A, F420V 1 to 3, 300 g ai/ha",32%
same,"Plant growth injury, scale 0-100, 100 is 100% damage","[1]; Ø R128A, F420V 2, POST, 7 DAT, 75 g ai/ha",24%
same,"Plant growth injury, scale 0-100, 100 is 100% damage","[1]; Ø R128A, F420V 2, POST, 7 DAT, 150 g ai/ha",20%
same,"Plant growth injury, scale 0-100, 100 is 100% damage","[1]; Ø R128A, F420V 2, POST, 7 DAT, 300 g ai/ha",33%
same,"Plant growth injury, scale 0-100, 100 is 100% damage","[1]; Ø R128A, F420V 3, POST, 7 DAT, 75 g ai/ha",11%
same,"Plant growth injury, scale 0-100, 100 is 100% damage","[1]; Ø R128A, F420V 3, POST, 7 DAT, 150 g ai/ha",30%
same,"Plant growth injury, scale 0-100, 100 is 100% damage","[1]; Ø R128A, F420V 3, POST, 7 DAT, 300 g ai/ha",36%
same,"Plant growth injury, scale 0-100, 100 is 100% damage","[1]; Ø non-transgenic Arabidopsis, POST, 7 DAT, 75 g ai/ha",98%
same,"Plant growth injury, scale 0-100, 100 is 100% damage","[1]; Ø non-transgenic Arabidopsis, POST, 7 DAT, 150 g ai/ha",98%
same,"Plant growth injury, scale 0-100, 100 is 100% damage","[1]; Ø non-transgenic Arabidopsis, POST, 7 DAT, 300 g ai/ha",98%
same,injury score 1 WAT,"[2]; Soy T0 AmtuPPX2L_R128L_F420V event 1, greenhouse, 25 g ai/ha",3
same,injury score 1 WAT,"[2]; Soy T0 AmtuPPX2L_R128L_F420V event 1, greenhouse, 50 g ai/ha",4
same,injury score 1 WAT,"[2]; Soy T0 AmtuPPX2L_R128L_F420V event 1, greenhouse, 75 g ai/ha",5
same,injury score 1 WAT,"[2]; Soy T0 AmtuPPX2L_R128L_F420V event 2, greenhouse, 25 g ai/ha",0
same,injury score 1 WAT,"[2]; Soy T0 AmtuPPX2L_R128L_F420V event 2, greenhouse, 50 g ai/ha",1
same,injury score 1 WAT,"[2]; Soy T0 AmtuPPX2L_R128L_F420V event 2, greenhouse, 75 g ai/ha",3
same,Injury score from 0-9,"[2]; AmtuPPX2L (10 events), benzoxazin 12.5 + 1% MSO",3
same,Injury score from 0-9,"[2]; AmtuPPX2L (10 events), benzoxazin 25 + 1% MSO",5
same,Injury score from 0-9,"[2]; AmtuPPX2L_F420L (7 events), benzoxazin 12.5 + 1% MSO",2
same,Injury score from 0-9,"[2]; AmtuPPX2L_F420L (7 events), benzoxazin 25 + 1% MSO",1
same,Injury score from 0-9,"[2]; AmtuPPX2L_F420M (8 events), benzoxazin 25 + 1% MSO",1
